Reference: ChEMBL document CHEMBL3739350, “Novel hydrazone moiety-bearing aminopyrimidines as selective inhibitors of epidermal growth factor receptor T790M mutant” (Eur J Med Chem, 2015)

What was measured:
[1] = test system: HT-29; experiment: cells; format: functional, cell-based; settings: Homo sapiens, HT-29, 72 h
Description: Cytotoxicity against human HT-29 cells assessed as inhibition of cell proliferation after 72 hrs by MTT assay

[2] = test system: NCI-H1975; experiment: cells; format: functional, cell-based; settings: Homo sapiens, NCI-H1975, 72 h
[3] = test system: A549; experiment: Antiproliferative activity against human A549 cells harboring wild type EGFR/k-Ras mutation after 72 hrs by MTT assay; format: functional, cell-based; settings: A549, 72 h
[4] = molecular target: Epidermal growth factor receptor (Homo sapiens, UniProt P00533); experiment: Inhibition of wild type recombinant human EGFR preincubated for 10 mins followed by FAM-labeled peptide/ATP addition measured after 1 hr by mobility shift assay
[5] = molecular target: Epidermal growth factor receptor (Homo sapiens, UniProt P00533, L858R/T790M); format: protein assay
[6] = molecular target: Epidermal growth factor receptor (Homo sapiens, UniProt P00533, T790M); format: protein assay
[7] = molecular target: Epidermal growth factor receptor (Homo sapiens, UniProt P00533, DELE746/T790M); format: protein assay
Chain of Epidermal growth factor receptor (Homo sapiens, UniProt P00533, DELE746/T790M) (P00533 whole entry E746del/T790M, looked up): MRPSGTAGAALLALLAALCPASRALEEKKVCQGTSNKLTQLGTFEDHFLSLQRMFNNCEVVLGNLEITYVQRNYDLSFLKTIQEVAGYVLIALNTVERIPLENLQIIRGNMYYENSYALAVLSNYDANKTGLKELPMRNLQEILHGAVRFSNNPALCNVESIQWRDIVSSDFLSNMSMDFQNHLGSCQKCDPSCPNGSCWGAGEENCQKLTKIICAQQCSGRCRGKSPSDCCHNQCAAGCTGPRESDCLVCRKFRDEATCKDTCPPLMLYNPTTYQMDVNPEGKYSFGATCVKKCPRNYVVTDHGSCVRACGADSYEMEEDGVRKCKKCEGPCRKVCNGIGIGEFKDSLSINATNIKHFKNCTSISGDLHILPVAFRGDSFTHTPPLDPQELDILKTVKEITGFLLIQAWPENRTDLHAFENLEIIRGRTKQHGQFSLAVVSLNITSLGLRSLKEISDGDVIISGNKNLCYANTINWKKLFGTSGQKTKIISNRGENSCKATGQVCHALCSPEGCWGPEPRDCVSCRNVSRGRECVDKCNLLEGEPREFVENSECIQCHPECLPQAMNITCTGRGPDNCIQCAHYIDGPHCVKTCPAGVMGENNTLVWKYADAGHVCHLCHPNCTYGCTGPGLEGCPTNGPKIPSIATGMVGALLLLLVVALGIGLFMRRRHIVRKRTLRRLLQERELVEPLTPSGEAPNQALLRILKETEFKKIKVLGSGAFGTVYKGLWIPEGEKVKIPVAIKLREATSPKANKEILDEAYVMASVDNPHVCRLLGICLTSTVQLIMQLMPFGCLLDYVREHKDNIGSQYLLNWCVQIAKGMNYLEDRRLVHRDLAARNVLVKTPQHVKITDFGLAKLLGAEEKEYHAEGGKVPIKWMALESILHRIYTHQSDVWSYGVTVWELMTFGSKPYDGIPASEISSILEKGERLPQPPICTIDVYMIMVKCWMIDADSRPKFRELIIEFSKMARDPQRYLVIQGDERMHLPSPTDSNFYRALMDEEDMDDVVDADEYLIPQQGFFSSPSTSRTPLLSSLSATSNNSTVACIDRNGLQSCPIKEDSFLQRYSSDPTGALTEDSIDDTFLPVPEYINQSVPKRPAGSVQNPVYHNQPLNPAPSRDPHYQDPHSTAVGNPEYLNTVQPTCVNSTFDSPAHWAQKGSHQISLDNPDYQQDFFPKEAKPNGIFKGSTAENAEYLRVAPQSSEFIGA

Chain of Epidermal growth factor receptor (Homo sapiens, UniProt P00533, L858R/T790M) (P00533 25-1210 T790M/L858R limits assumed): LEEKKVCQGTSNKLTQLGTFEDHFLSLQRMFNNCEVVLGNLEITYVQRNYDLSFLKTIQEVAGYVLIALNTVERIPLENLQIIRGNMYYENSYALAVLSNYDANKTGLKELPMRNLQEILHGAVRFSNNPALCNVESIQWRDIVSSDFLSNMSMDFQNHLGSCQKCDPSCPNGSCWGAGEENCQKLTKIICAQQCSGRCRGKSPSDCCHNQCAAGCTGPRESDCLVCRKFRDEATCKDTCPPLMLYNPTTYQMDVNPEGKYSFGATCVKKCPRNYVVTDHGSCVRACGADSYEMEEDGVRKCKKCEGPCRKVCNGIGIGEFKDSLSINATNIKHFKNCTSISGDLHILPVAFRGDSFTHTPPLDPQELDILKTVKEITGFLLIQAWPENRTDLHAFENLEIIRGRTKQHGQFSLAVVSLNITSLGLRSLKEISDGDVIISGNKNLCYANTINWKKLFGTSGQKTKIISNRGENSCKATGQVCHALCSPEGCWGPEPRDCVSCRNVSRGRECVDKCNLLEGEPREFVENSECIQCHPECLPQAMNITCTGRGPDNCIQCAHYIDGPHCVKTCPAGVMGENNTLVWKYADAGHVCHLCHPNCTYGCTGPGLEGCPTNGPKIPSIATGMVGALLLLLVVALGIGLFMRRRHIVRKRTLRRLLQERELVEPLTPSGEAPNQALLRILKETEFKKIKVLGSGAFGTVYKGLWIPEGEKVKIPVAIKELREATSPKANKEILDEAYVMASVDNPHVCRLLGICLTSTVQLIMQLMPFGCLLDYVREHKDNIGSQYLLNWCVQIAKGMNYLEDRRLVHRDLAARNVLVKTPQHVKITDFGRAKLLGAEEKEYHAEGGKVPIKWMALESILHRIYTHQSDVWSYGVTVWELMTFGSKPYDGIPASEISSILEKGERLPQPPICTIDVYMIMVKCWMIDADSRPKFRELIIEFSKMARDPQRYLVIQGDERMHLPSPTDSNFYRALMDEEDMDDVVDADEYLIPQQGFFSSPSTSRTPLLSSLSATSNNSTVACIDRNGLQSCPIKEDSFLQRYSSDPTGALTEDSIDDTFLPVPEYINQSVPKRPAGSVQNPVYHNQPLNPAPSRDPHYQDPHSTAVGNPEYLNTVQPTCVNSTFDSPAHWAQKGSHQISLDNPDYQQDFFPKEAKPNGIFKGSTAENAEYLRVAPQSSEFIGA
Chain of Epidermal growth factor receptor (Homo sapiens, UniProt P00533) (P00533 whole entry): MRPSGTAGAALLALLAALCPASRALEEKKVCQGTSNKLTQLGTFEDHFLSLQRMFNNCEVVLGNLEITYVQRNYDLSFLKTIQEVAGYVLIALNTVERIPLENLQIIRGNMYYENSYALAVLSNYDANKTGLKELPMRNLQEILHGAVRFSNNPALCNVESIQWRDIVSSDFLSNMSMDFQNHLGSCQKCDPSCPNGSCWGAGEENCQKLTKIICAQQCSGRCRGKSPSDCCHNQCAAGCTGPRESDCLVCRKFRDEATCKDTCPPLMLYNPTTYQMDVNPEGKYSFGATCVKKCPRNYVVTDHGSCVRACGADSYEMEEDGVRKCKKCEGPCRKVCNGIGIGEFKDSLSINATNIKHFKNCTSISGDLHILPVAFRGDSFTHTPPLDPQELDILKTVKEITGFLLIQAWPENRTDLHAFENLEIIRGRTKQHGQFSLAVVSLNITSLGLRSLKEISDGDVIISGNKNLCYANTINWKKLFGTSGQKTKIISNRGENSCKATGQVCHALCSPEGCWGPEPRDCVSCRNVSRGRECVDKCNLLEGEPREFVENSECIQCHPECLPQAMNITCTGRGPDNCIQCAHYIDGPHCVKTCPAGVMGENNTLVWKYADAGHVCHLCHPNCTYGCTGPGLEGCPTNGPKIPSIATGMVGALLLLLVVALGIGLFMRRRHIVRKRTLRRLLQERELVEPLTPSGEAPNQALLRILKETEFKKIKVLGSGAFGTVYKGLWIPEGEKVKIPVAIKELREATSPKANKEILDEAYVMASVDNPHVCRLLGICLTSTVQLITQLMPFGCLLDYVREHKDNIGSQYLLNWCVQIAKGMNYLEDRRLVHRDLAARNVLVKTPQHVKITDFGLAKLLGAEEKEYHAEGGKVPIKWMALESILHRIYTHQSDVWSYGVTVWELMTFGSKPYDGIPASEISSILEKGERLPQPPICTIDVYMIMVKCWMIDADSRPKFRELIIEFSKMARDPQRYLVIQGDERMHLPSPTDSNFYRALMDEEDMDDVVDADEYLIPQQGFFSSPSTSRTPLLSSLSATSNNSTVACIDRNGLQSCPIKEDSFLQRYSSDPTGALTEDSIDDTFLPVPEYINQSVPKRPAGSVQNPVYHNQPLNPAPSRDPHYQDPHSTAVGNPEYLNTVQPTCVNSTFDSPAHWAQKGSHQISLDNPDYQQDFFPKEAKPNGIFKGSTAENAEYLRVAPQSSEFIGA
Chain of Epidermal growth factor receptor (Homo sapiens, UniProt P00533, T790M) (P00533 25-1210 T790M limits assumed): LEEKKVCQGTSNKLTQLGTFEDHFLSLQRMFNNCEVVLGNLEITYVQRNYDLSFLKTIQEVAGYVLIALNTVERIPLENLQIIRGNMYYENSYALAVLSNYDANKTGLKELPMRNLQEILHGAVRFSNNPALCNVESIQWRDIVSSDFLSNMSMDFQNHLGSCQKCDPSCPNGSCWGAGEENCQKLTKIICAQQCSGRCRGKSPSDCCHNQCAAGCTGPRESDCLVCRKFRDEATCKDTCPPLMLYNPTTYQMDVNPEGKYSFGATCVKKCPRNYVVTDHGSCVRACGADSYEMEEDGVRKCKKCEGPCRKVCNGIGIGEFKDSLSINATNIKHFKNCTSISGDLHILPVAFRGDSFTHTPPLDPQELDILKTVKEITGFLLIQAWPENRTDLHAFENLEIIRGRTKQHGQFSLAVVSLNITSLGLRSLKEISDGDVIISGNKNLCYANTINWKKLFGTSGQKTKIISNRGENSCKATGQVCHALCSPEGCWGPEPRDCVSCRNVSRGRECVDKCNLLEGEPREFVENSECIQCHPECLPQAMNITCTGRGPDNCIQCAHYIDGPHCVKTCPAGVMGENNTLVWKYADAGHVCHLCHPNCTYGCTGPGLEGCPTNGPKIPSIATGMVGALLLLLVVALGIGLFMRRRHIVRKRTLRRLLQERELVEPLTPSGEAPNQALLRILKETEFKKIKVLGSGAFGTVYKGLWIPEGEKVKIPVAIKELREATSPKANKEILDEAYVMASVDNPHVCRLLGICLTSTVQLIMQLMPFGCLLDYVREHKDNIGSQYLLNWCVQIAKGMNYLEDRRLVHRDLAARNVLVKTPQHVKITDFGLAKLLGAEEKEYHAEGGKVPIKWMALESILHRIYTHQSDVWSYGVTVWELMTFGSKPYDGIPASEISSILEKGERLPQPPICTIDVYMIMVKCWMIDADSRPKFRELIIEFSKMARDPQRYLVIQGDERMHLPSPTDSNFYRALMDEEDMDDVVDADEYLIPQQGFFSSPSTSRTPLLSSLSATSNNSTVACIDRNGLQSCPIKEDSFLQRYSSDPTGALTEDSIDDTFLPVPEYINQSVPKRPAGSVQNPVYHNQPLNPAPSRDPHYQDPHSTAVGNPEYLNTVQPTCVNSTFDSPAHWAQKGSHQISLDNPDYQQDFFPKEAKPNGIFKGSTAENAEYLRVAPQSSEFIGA

| IC50 [1] [µM] | IC50 [2] [µM] | IC50 [3] [µM] | IC50 [4] [µM] | IC50 [5] [µM] | IC50 [6] [µM] | IC50 [7] [µM] | Compound |
| --- | --- | --- | --- | --- | --- | --- | --- |
| 2.95 | 0.058 | 1.87 | – | – | – | – | C=CC(=O)Nc1cccc(Oc2nc(Nc3ccc(N4CCN(C)CC4)cc3OC)ncc2Cl)c1 |
| 6.83 | 0.99 | 7.12 | – | – | – | – | COc1ccc(/C(C)=N/Nc2ncc(Cl)c(Nc3cccc(NC(=O)/C=C/CN(C)C)c3)n2)cc1 |
| 4.82 | 1.58 | 6.24 | – | – | – | – | COc1ccc(/C=N/Nc2ncc(Cl)c(Nc3cccc(NC(=O)/C=C/CN(C)C)c3)n2)cc1 |
| 3.5 | 0.29 | 6.06 | > 20 | 1.51 | 4.74 | 1.91 | C=CC(=O)Nc1cccc(Nc2nc(N/N=C/c3ccccc3F)ncc2Cl)c1 |
| 10.2 | 1.16 | 8.96 | 15.3 | 2.35 | – | – | C/C(=N\Nc1ncc(Cl)c(Nc2cccc(NC(=O)/C=C/CN(C)C)c2)n1)c1ccc(F)cc1 |
| 3.87 | 0.91 | 11.4 | – | – | – | – | COc1cccc(/C(C)=N/Nc2ncc(Cl)c(Nc3cccc(NC(=O)/C=C/CN(C)C)c3)n2)c1 |
| – | 8.46 | 26 | – | – | – | – | C=CC(=O)Nc1cccc(Nc2nc(NNC(=O)c3ccc(OC)cc3)ncc2Cl)c1 |
| 4.36 | 0.3 | 1.63 | 11.8 | 2.27 | – | – | C=CC(=O)Nc1cccc(Nc2nc(N/N=C(\C)c3ccc(F)cc3F)ncc2Cl)c1 |
| 4.56 | 1.06 | 7.71 | – | – | – | – | C=CC(=O)Nc1cccc(Nc2nc(N/N=C(\C)c3ccc(OC)cc3)ncc2Cl)c1 |
| 25.2 | 4.13 | 47.7 | – | – | – | – | CN(C)C/C=C/C(=O)Nc1cccc(Nc2nc(N/N=C/c3ccncc3)ncc2Cl)c1 |
| 8.99 | 1.19 | 10.3 | – | – | – | – | C=CC(=O)Nc1cccc(Nc2nc(N/N=C(\C)c3cccc(OC)c3)ncc2Cl)c1 |
| 6.34 | 0.43 | 10.4 | > 20 | 0.86 | 1.12 | 0.57 | C=CC(=O)Nc1cccc(Nc2nc(N/N=C/c3ccc(F)cc3)ncc2Cl)c1 |
| 4.76 | 0.38 | 11.2 | > 20 | 11.6 | – | – | C=CC(=O)Nc1cccc(Nc2nc(N/N=C/c3ccc(F)cc3F)ncc2Cl)c1 |
| 9.68 | 5.45 | 28.7 | > 20 | > 20 | – | – | CN(C)C/C=C/C(=O)Nc1cccc(Nc2nc(N/N=C/c3c[nH]c4ccccc34)ncc2Cl)c1 |
| – | 5.31 | 31 | – | – | – | – | C=CC(=O)Nc1cccc(Nc2nc(NNC(=O)c3ccc(F)cc3)ncc2Cl)c1 |
| 3.46 | 0.48 | 5.57 | > 20 | 0.72 | 0.82 | 1.25 | C/C(=N\Nc1ncc(Cl)c(Nc2cccc(NC(=O)/C=C/CN(C)C)c2)n1)c1ccc(F)cc1F |
| 2.12 | 0.26 | 2.91 | > 20 | 0.88 | 0.79 | 0.76 | CN(C)C/C=C/C(=O)Nc1cccc(Nc2nc(N/N=C/c3cn(Cc4ccccc4)c4ccccc34)ncc2Cl)c1 |
| 5.05 | 0.39 | 8.2 | > 20 | 1.68 | 2.53 | 1.29 | C=CC(=O)Nc1cccc(Nc2nc(N/N=C(\C)c3ccc(F)cc3)ncc2Cl)c1 |
| 0.12 | 0.077 | 0.83 | > 20 | 2.38 | – | – | C/C(=N\Nc1ncc(Cl)c(Nc2cccc(NC(=O)/C=C/CN(C)C)c2)n1)c1ccccn1 |
| 10.9 | 6.24 | 34.9 | – | – | – | – | C/C(=N\Nc1ncc(Cl)c(Nc2cccc(NC(=O)/C=C/CN(C)C)c2)n1)c1ccncc1 |
| 3.21 | 0.74 | 5.36 | > 20 | 5.67 | – | – | C=CC(=O)Nc1cccc(Nc2nc(N/N=C(\C)c3ccc(C)cc3)ncc2Cl)c1 |
| 12.8 | 3.69 | 28.7 | – | – | – | – | C=CC(=O)Nc1cccc(Nc2nc(N/N=C(\C)c3ccncc3)ncc2Cl)c1 |
| 11 | 1.35 | > 100 | – | – | – | – | C=CC(=O)Nc1cccc(Nc2nc(N/N=C/c3cn(Cc4ccccc4)c4ccccc34)ncc2Cl)c1 |
| 11.8 | 1.37 | 10.8 | – | – | – | – | C/C(=N\Nc1ncc(Cl)c(Nc2cccc(NC(=O)/C=C/CN(C)C)c2)n1)c1ccc(C)cc1 |
| 2.92 | 0.17 | 2.17 | > 20 | 2.52 | 2.51 | 5.11 | CN(C)C/C=C/C(=O)Nc1cccc(Nc2nc(N/N=C/c3ccc(F)cc3F)ncc2Cl)c1 |
| 9.66 | 2.35 | 17.3 | > 20 | 4.32 | – | – | C/C(=N\Nc1ncc(Cl)c(Nc2cccc(NC(=O)/C=C/CN(C)C)c2)n1)c1cccnc1 |
| 12.3 | 9.92 | 13.7 | – | – | – | – | Nc1cccc(Nc2nc(N/N=C/c3ccc(F)cc3)ncc2Cl)c1 |
